# Assay results: paper PMC7920811 (Neoplasia (New York, N.Y.), 2021)
# Molecular target: STAT3 (Homo sapiens, UniProt P40763)
# Test: label-free microscale thermophoresis
# Assay type: binding
# STAT3, sequence (P40763 2-770): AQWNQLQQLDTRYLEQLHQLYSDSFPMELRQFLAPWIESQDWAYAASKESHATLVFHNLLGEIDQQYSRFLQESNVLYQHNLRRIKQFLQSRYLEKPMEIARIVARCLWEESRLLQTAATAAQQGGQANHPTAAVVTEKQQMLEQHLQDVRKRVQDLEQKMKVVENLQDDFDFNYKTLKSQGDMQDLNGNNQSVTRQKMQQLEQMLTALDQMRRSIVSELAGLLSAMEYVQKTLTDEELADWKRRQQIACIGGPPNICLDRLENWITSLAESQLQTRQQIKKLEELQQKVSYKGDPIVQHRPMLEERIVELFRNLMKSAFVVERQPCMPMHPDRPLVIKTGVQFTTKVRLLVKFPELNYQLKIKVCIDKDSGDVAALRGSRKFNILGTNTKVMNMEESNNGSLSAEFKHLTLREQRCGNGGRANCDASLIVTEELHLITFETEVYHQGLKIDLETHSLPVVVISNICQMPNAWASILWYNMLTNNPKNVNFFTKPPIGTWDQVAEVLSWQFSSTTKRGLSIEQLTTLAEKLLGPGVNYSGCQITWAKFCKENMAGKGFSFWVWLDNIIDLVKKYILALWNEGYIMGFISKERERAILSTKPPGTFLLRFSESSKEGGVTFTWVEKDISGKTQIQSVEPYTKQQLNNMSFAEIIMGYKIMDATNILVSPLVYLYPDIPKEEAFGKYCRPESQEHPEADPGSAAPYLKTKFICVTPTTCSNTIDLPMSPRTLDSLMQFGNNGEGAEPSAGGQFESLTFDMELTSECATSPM
compound,measurement,value
"CC(=O)Nc1ccc(O)cc1 [AAP, acetaminophen]",Kd,600 ± 400 nM
